# ChEMBL document CHEMBL3779859, “Synergistic activity of a short lipidated antimicrobial peptide (lipoAMP) and colistin or tobramycin against Pseudomonas aeruginosa from cystic fibrosis patients” (Medchemcomm, 2016)
# Active and inactive are the calls of the source. The calls are words filed in the database; no cut-off is given here. Peptide text beside a SMILES is read from it. * marks the point of attachment. Decanoyl = CCCCCCCCCC(=O)*
# Columns and labels:
# Pseudomonas aeruginosa [1] = assay: Antibacterial activity against Pseudomonas aeruginosa LESB58 clinical isolate after 18 to 22 hrs by checkerboard method in presence of colistin; assay type: functional
# Pseudomonas aeruginosa [2] = assay: Antibacterial activity against Pseudomonas aeruginosa LESB58 clinical isolate after 18 to 22 hrs by checkerboard method in presence of tobramycin; assay type: functional
# Pseudomonas aeruginosa [3] = assay: Antibacterial activity against Pseudomonas aeruginosa PAO1 clinical isolate after 18 to 22 hrs by checkerboard method in presence of colistin; assay type: functional
# Pseudomonas aeruginosa [4] = assay: Antibacterial activity against Pseudomonas aeruginosa PAO1 clinical isolate after 18 to 22 hrs by checkerboard method in presence of tobramycin; assay type: functional
# Pseudomonas aeruginosa [5] = assay: Antibacterial activity against Pseudomonas aeruginosa Clone C clinical isolate after 18 to 22 hrs by checkerboard method in presence of colistin; assay type: functional
# Pseudomonas aeruginosa [6] = assay: Antibacterial activity against Pseudomonas aeruginosa KD491 clinical isolate assessed as delay in growth at 4 to 8 ug/ml measured every 15 mins by microtiter plate reader method; assay type: functional, organism-based
# Pseudomonas aeruginosa [7] = assay: Antibacterial activity against Pseudomonas aeruginosa KD491 clinical isolate assessed as growth inhibition at 4 ug/ml measured every 15 mins by microtiter plate reader method in presence of […] ug/ml colistin; assay type: functional, organism-based
# Pseudomonas aeruginosa [8] = assay: Antibacterial activity against Pseudomonas aeruginosa LESB58 clinical isolate assessed as delay in growth at 4 to 32 ug/ml measured every 15 mins by microtiter plate reader method; assay type: functional, organism-based
# Pseudomonas aeruginosa [9] = assay: Antibacterial activity against Pseudomonas aeruginosa PAO1 clinical isolate assessed as growth inhibition at 4 ug/ml measured every 15 mins by microtiter plate reader method in presence of 1 ug/ml colistin; assay type: functional, organism-based
# Pseudomonas aeruginosa [10] = assay: Antibacterial activity against Pseudomonas aeruginosa KD491 clinical isolate assessed as growth inhibition at 8 ug/ml measured every 15 mins by microtiter plate reader method in presence of 1 ug/ml tobramycin; assay type: functional, organism-based
# Pseudomonas aeruginosa [11] = assay: Antibacterial activity against Pseudomonas aeruginosa LESB58 clinical isolate assessed as growth inhibition at 32 ug/ml measured every 15 mins by microtiter plate reader method in presence of 1 ug/ml tobramycin; assay type: functional, organism-based
# Pseudomonas aeruginosa [12] = assay: Antibacterial activity against Pseudomonas aeruginosa Clone C clinical isolate assessed as growth inhibition at 16 ug/ml measured every 15 mins by microtiter plate reader method in presence of […] ug/ml tobramycin; assay type: functional, organism-based
# Pseudomonas aeruginosa [13] = assay: Antibacterial activity against Pseudomonas aeruginosa KD491 clinical isolate assessed as inhibition of biofilm formation at 2 ug/ml after 18 to 22 hrs by crystal violet staining-based polystyrene microtiter plate reader method; assay type: functional
# Pseudomonas aeruginosa [14] = assay: Antibacterial activity against Pseudomonas aeruginosa KD491 clinical isolate assessed as inhibition of biofilm formation at 4 ug/ml after 18 to 22 hrs by crystal violet staining-based polystyrene microtiter plate reader method; assay type: functional
# Pseudomonas aeruginosa [15] = assay: Toxicity in Pseudomonas aeruginosa KD491 clinical isolate assessed as inhibition of planktonic cell growth at 2 to 4 ug/ml after 18 to 22 hrs by microtiter plate reader method; assay type: organism-based; settings: in vivo
# Pseudomonas aeruginosa [16] = assay: Antibacterial activity against Pseudomonas aeruginosa PAO1 clinical isolate assessed as inhibition of biofilm formation at 64 ug/ml after 18 to 22 hrs by crystal violet staining-based polystyrene microtiter plate reader method; assay type: functional
# Pseudomonas aeruginosa [17] = assay: Antibacterial activity against Pseudomonas aeruginosa Clone C clinical isolate assessed as inhibition of biofilm formation at 128 ug/ml after 18 to 22 hrs by crystal violet staining-based polystyrene microtiter plate reader method; assay type: functional
# Pseudomonas aeruginosa [18] = assay: Antibacterial activity against Pseudomonas aeruginosa PAO1 clinical isolate assessed as inhibition of biofilm formation at 32 ug/ml after 18 to 22 hrs by crystal violet staining-based polystyrene microtiter plate reader method in presence of 2 ug/ml colistin; assay type: functional
# Pseudomonas aeruginosa [19] = assay: Antibacterial activity against Pseudomonas aeruginosa Clone C clinical isolate assessed as inhibition of biofilm formation at 32 ug/ml after 18 to 22 hrs by crystal violet staining-based polystyrene microtiter plate reader method in presence of 2 ug/ml colistin; assay type: functional
# Pseudomonas aeruginosa [20] = assay: Antibacterial activity against Pseudomonas aeruginosa PAO1 clinical isolate assessed as inhibition of biofilm formation at 32 ug/ml after 18 to 22 hrs by crystal violet staining-based polystyrene microtiter plate reader method in absence of colistin; assay type: functional, organism-based
# Pseudomonas aeruginosa [21] = assay: Antibacterial activity against Pseudomonas aeruginosa Clone C clinical isolate assessed as delay in growth at 8 to 16 ug/ml measured every 15 mins by microtiter plate reader method; assay type: functional, organism-based
# Pseudomonas aeruginosa [22] = assay: Antibacterial activity against Pseudomonas aeruginosa Clone C clinical isolate assessed as delay in growth rate in exponential phase of bacterial growth curve at 8 to 16 ug/ml measured every 15 mins by microtiter plate reader method; assay type: functional, organism-based
# Pseudomonas aeruginosa [23] = assay: Antibacterial activity against Pseudomonas aeruginosa LESB58 clinical isolate assessed as delay in growth rate in exponential phase of bacterial growth curve at 4 to 32 ug/ml measured every 15 mins by microtiter plate reader method; assay type: functional, organism-based
# Pseudomonas aeruginosa [24] = assay: Antibacterial activity against Pseudomonas aeruginosa PAO1 clinical isolate assessed as inhibition of biofilm formation at 4 ug/ml after 18 to 22 hrs by crystal violet staining-based polystyrene microtiter plate reader method in presence of 0.5 ug/ml tobramycin; assay type: functional, organism-based
# [25] = Hemolytic activity in erythrocytes (unknown origin) at 250 ug/ml; assay type: ADME, cell-based, Erythrocyte; settings: read-out: Activity
# [26] = Hemolytic activity in erythrocytes (unknown origin) at 32 ug/ml; assay type: ADME, cell-based, Erythrocyte; settings: read-out: Activity
# Pseudomonas aeruginosa [27] = assay: Antibacterial activity against Pseudomonas aeruginosa VW1633 clinical isolate after 16 to 20 hrs by microdilution assay; assay type: functional
# Pseudomonas aeruginosa [28] = assay: Antibacterial activity against Pseudomonas aeruginosa LES431 clinical isolate after 16 to 20 hrs by microdilution assay; assay type: functional
# Pseudomonas aeruginosa [29] = assay: Antibacterial activity against Pseudomonas aeruginosa D599 clinical isolate after 16 to 20 hrs by microdilution assay; assay type: functional
# Pseudomonas aeruginosa [30] = assay: Antibacterial activity against Pseudomonas aeruginosa PAO1 clinical isolate after 16 to 20 hrs by microdilution assay; assay type: functional
# Pseudomonas aeruginosa [31] = assay: Antibacterial activity against Pseudomonas aeruginosa VW1501 clinical isolate after 16 to 20 hrs by microdilution assay; assay type: functional
# Pseudomonas aeruginosa [32] = assay: Antibacterial activity against Pseudomonas aeruginosa KD557 clinical isolate after 16 to 20 hrs by microdilution assay; assay type: functional
# Pseudomonas aeruginosa [33] = assay: Antibacterial activity against Pseudomonas aeruginosa KD491 clinical isolate assessed as delay in growth rate in exponential phase of bacterial growth curve at 4 to 8 ug/ml measured every 15 mins by microtiter plate reader method; assay type: functional, organism-based
# Pseudomonas aeruginosa [34] = assay: Antibacterial activity against Pseudomonas aeruginosa VW1485 clinical isolate after 16 to 20 hrs by microdilution assay; assay type: functional
# Pseudomonas aeruginosa [35] = assay: Antibacterial activity against Pseudomonas aeruginosa VW0247 clinical isolate after 16 to 20 hrs by microdilution assay; assay type: functional
# Pseudomonas aeruginosa [36] = assay: Antibacterial activity against Pseudomonas aeruginosa kl 3.2 clinical isolate after 16 to 20 hrs by microdilution assay; assay type: functional
# Pseudomonas aeruginosa [37] = assay: Antibacterial activity against Pseudomonas aeruginosa VW1538 clinical isolate after 16 to 20 hrs by microdilution assay; assay type: functional
# Pseudomonas aeruginosa [38] = assay: Antibacterial activity against Pseudomonas aeruginosa MIDLANDS clinical isolate after 16 to 20 hrs by microdilution assay; assay type: functional
# Pseudomonas aeruginosa [39] = assay: Antibacterial activity against Pseudomonas aeruginosa LES400 clinical isolate after 16 to 20 hrs by microdilution assay; assay type: functional
# Pseudomonas aeruginosa [40] = assay: Antibacterial activity against Pseudomonas aeruginosa VW313 clinical isolate after 16 to 20 hrs by microdilution assay; assay type: functional
# Pseudomonas aeruginosa [41] = assay: Antibacterial activity against Pseudomonas aeruginosa LESB58 clinical isolate after 16 to 20 hrs by microdilution assay; assay type: functional
compound,measurement,setting,value
CCCCCCCCCC(=O)NCCCC[C@H](NC(=O)[C@H](Cc1c[nH]c2ccccc12)NC(=O)[C@H](CCCNC(=N)N)NC(=O)[C@H](Cc1c[nH]c2ccccc12)NC(=O)[C@H](CCCNC(=N)N)NC(=O)[C@H](Cc1c[nH]c2ccccc12)NC(=O)[C@@H](N)CCCNC(=N)N)C(=O)O (H-RWRWRWK(Decanoyl)-OH),fractional inhibitory concentration index (FICI),Pseudomonas aeruginosa [1],0.375
same,fractional inhibitory concentration index (FICI),Pseudomonas aeruginosa [2],0.5
same,fractional inhibitory concentration index (FICI),Pseudomonas aeruginosa [3],0.3125
same,fractional inhibitory concentration index (FICI),Pseudomonas aeruginosa [4],0.75
same,fractional inhibitory concentration index (FICI),Pseudomonas aeruginosa [5],0.5
same,Activity,Pseudomonas aeruginosa [6],Active
same,growth inhibition (GI),Pseudomonas aeruginosa [7],Active
same,Activity,Pseudomonas aeruginosa [8],Active
same,growth inhibition (GI),Pseudomonas aeruginosa [9],Active
same,growth inhibition (GI),Pseudomonas aeruginosa [10],Active
same,growth inhibition (GI),Pseudomonas aeruginosa [11],Active
same,growth inhibition (GI),Pseudomonas aeruginosa [12],Active
same,inhibition at 2 µg/mL,Pseudomonas aeruginosa [13],45%
same,inhibition at 4 µg/mL,Pseudomonas aeruginosa [14],52%
same,Activity,Pseudomonas aeruginosa [15],Non-toxic
same,inhibition at 64 µg/mL,Pseudomonas aeruginosa [16],81%
same,inhibition at 128 µg/mL,Pseudomonas aeruginosa [17],82%
same,inhibition (INH),Pseudomonas aeruginosa [18],84%
same,inhibition (INH),Pseudomonas aeruginosa [19],70%
same,inhibition,Pseudomonas aeruginosa [20],inactive
same,Activity,Pseudomonas aeruginosa [21],Active
same,Activity,Pseudomonas aeruginosa [22],Active
same,Activity,Pseudomonas aeruginosa [23],Active
same,inhibition,Pseudomonas aeruginosa [24],inactive
same,hemolysis at 250 ug/ml,[25],50%
same,hemolysis at 32 ug/ml,[26],< 10%
same,MIC,Pseudomonas aeruginosa [27],16 µg/mL
same,MIC,Pseudomonas aeruginosa [28],32 µg/mL
same,MIC,Pseudomonas aeruginosa [29],128 µg/mL
same,MIC,Pseudomonas aeruginosa [30],256 µg/mL
same,MIC,Pseudomonas aeruginosa [31],128 µg/mL
same,MIC,Pseudomonas aeruginosa [32],256 µg/mL
same,Activity,Pseudomonas aeruginosa [33],Active
same,MIC,Pseudomonas aeruginosa [34],256 µg/mL
same,MIC,Pseudomonas aeruginosa [35],64 µg/mL
same,MIC,Pseudomonas aeruginosa [36],128 µg/mL
same,MIC,Pseudomonas aeruginosa [37],64 µg/mL
same,MIC,Pseudomonas aeruginosa [38],64 µg/mL
same,MIC,Pseudomonas aeruginosa [39],64 µg/mL
same,MIC,Pseudomonas aeruginosa [40],32 µg/mL
same,MIC,Pseudomonas aeruginosa [41],128 µg/mL
